From patent publication US11524960B2, “Heterobicyclic inhibitors of MAT2A and methods of use for treating cancer” (AGIOS PHARMACEUTICALS, INC., priority 2018, dated 2022)

Target: T1, MAT2A homodimer (Homo sapiens, UniProt P31153)
T1 construct: inferred from Ni sepharose purification and imidazole elution; made in house; host or cells: Sf9 insect cells, recombinant baculovirus (Bac to Bac, pFASTBAC1)
Assay: Biochemical assay: inhibition of MAT2A (phosphate release, PiColorLock Gold)
Details: MAT2A IC50 score; read-out: Enzyme Inhibition (Example 275)
Description: Mat2A protein was expressed by recombinant baculovirus in SF9 infected cells using the Bac to Bac system cloned into the pFASTBAC1 vector (Invitrogen, Carlsbad, Calif.). Recombinant MAT2A was isolated from the cell lysate of 150 g of infected cells using HP Ni sepharose column chromatography. Recombinant MAT2A homodimer was eluted with 250 and 500 mM imidazole, and fractions containing MAT2A were identified by sodium dodecyl sulfate polyacrylamide gel electrophoresis and pooled.
For determination of the inhibitory potency of compounds against the MAT2A homodimer, protein was diluted to […] in assay buffer (50 mM Tris, pH 8.0, 50 mM KCl, 15 mM MgCl2, 0.3 mM EDTA, 0.005% [w/v] bovine serum albumin [BSA]). Test compound was prepared in 100% dimethyl sulfoxide (DMSO) at 50× the desired final concentration. […] of compound dilution was added to 40 μL of enzyme dilution and the mixture was allowed to equilibrate for 60 minutes at 25° C. The enzymatic assay was initiated by the addition of 10 μL of substrate mix (500 μM ATP, pH 7.0, 400 μM L-methionine in 1× assay buffer), and the mixture was incubated for a further 60 minutes at 25° C. The reaction was halted and the liberated phosphate released by the enzyme in stoichiometric amounts by the production of S-adenosyl methionine (SAM) was measured using the PiColorLock Gold kit (Innova Biosciences, UK). Absolute product amounts were determined by comparison to a standard curve of potassium phosphate buffer, pH 8.0.

T1 sequence (P31153 whole entry): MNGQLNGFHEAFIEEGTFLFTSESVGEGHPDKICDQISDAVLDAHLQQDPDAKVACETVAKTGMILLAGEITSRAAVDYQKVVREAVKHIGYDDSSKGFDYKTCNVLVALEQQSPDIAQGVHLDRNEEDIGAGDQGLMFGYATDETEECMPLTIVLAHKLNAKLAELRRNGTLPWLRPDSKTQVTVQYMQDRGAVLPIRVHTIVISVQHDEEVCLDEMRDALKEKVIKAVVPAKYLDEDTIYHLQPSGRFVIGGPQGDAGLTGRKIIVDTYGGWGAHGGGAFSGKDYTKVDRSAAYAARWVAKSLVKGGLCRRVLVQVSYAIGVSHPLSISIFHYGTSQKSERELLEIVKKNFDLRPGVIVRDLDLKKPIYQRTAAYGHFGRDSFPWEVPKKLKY

Row | IC50 | Structure (SMILES)
1 | < 100 nM | CCNc1ncc2cn(-c3ccc4nn(C)cc4c3)c(=O)c(-c3ccc(OC(F)(F)F)cc3)c2n1 [Example 170, 2-(ethylamino)-6-(2-methyl-2H-indazol-5-yl)-8-(4-(trifluoromethoxy)phenyl)pyrido[4,3-d]pyrimidin-7(6H)-one]
2 | < 100 nM | Cn1cc2cc(-n3cc4cnc(NC5CC5)nc4c(-c4ccc(Cl)cc4)c3=O)ccc2n1 [Example 173, 8-(4-chlorophenyl)-2-(cyclopropylamino)-6-(2-methyl-2H-indazol-5-yl)pyrido[4,3-d]pyrimidin-7(6H)-one]
3 | < 100 nM | Cn1cc2cc(-n3cc4cnc(NC5CCC5)nc4c(-c4ccc(OC(F)F)cc4)c3=O)ccc2n1 [Example 174, 2-(cyclobutylamino)-8-(4-(difluoromethoxy)phenyl)-6-(2-methyl-2H-indazol-5-yl)pyrido[4,3-d]pyrimidin-7(6H)-one]
4 | < 100 nM | Cn1cc2cc(-n3cc4cnc(NCC(F)F)nc4c(-c4ccc(OC(F)F)cc4)c3=O)ccc2n1 [Example 175, 2-((2,2-difluoroethyl)amino)-8-(4-(difluoromethoxy)phenyl)-6-(2-methyl-2H-indazol-5-yl)pyrido[4,3-d]pyrimidin-7(6H)-one]
5 | 100 to 1000 nM | COc1ccc(-c2c(=O)n(-c3ccncc3)cc3cnc(NCC(F)(F)F)nc23)cc1 [Example 176, 8-(4-methoxyphenyl)-6-(pyridin-4-yl)-2-((2,2,2-trifluoroethyl)amino)pyrido[4,3-d]pyrimidin-7(6H)-one]
6 | < 100 nM | CNc1ncc2cn(-c3ccc4ncccc4c3)c(=O)c(-c3ccc(OC(F)F)cc3)c2n1 [Example 184, 8-(4-(difluoromethoxy)phenyl)-2-(methylamino)-6-(quinolin-6-yl)pyrido[4,3-d]pyrimidin-7(6H)-one]
7 | 1000 to 10000 nM | O=c1c(-c2ccc(OC(F)F)cc2)c2nc(N3CCC3)ncc2cn1-c1ccc2ncccc2c1 [Example 185, 2-(azetidin-1-yl)-8-(4-(difluoromethoxy)phenyl)-6-(quinolin-6-yl)pyrido[4,3-d]pyrimidin-7(6)-one]
8 | 100 to 1000 nM | COc1ccc(-n2cc3cnc(NCCC(F)(F)F)nc3c(-c3ccc(Br)cc3)c2=O)cc1 [Example 186, 8-(4-bromophenyl)-6-(4-methoxyphenyl)-2-((3,3,3-trifluoropropyl)amino)pyrido[4,3-d]pyrimidin-7(6)-one]
9 | 1000 to 10000 nM | COc1ccc(-n2cc3cnc(N(C)CC(F)(F)F)nc3c(-c3ccc(Br)cc3)c2=O)cc1 [Example 187, 8-(4-bromophenyl)-6-(4-methoxyphenyl)-2-(methyl(2,2,2-trifluoroethyl)amino)pyrido[4,3-d]pyrimidin-7(6H)-one]
10 | < 100 nM | COc1ccc(-n2cc3cnc(NCC4CC4)nc3c(-c3ccc(Br)cc3)c2=O)cc1 [Example 190, 8-(4-bromophenyl)-2-((cyclopropylmethyl)amino)-6-(4-methoxyphenyl)pyrido[4,3-d]pyrimidin-7(6H)-one]
11 | < 100 nM | CCCNc1ncc2cn(-c3ccc(OC)cc3)c(=O)c(-c3ccc(Br)cc3)c2n1 [Example 191, 8-(4-bromophenyl)-6-(4-methoxyphenyl)-2-(propylamino)pyrido[4,3-d]pyrimidin-7(6H)-one]
12 | 100 to 1000 nM | COc1ccc(-c2c(=O)n(-c3ccc(=O)n(C)c3)cc3cnc(NCC(F)(F)F)nc23)cc1 [Example 194, 8-(4-methoxyphenyl)-6-(1-methyl-6-oxo-1,6-dihydropyridin-3-yl)-2-((2,2,2-trifluoroethyl)amino)pyrido[4,3-d]pyrimidin-7(6H)-one]
13 | < 100 nM | COc1ccc(-n2cc3cnc(NCC(F)(F)F)nc3c(-c3ccc(OC(F)(F)F)cc3)c2=O)cc1 [Example 196, 6-(4-methoxyphenyl)-2-((2,2,2-trifluoroethyl)amino)-8-(4-(trifluoromethoxy)phenyl)pyrido[4,3-d]pyrimidin-7(6H)-one]
14 | 100 to 1000 nM | COc1ccc(-n2cc3cnc(NCC(F)(F)F)nc3c(-c3ccc(C(F)(F)F)cc3)c2=O)cc1 [Example 197, 6-(4-methoxyphenyl)-2-((2,2,2-trifluoroethyl)amino)-8-(4-(trifluoromethyl)phenyl)pyrido[4,3-d]pyrimidin-7(6H)-one]
15 | 1000 to 10000 nM | COc1ccc(-n2cc3cnc(NCC(F)(F)F)nc3c(-c3ccc(C4CCC4)cc3)c2=O)cc1 [Example 199, 8-(4-cyclobutylphenyl)-6-(4-methoxyphenyl)-2-((2,2,2-trifluoroethyl)amino)pyrido[4,3-d]pyrimidin-7(6H)-one]
16 | 100 to 1000 nM | O=c1c(-c2ccc(OCC(F)F)cc2)c2nc(NCC(F)(F)F)ncc2cn1-c1ccc2ncccc2c1 [Example 201, 8-(4-(2,2-difluoroethoxy)phenyl)-6-(quinolin-6-yl)-2-((2,2,2-trifluoroethyl)amino)pyrido[4,3-d]pyrimidin-7(6H)-one]
17 | 100 to 1000 nM | COc1ccc(-n2cc3cnc(NCC(F)(F)F)nc3c(-c3ccc(N4CCC4)cc3)c2=O)cc1 [Example 204, 8-(4-(azetidin-1-yl)phenyl)-6-(4-methoxyphenyl)-2-((2,2,2-trifluoroethyl)amino)pyrido[4,3-d]pyrimidin-7(6H)-one]
18 | 100 to 1000 nM | COc1ccc(-c2c(=O)n(-c3cnoc3)cc3cnc(NCC(F)(F)F)nc23)cc1 [Example 207, 6-(isoxazol-4-yl)-8-(4-methoxyphenyl)-2-((2,2,2-trifluoroethyl)amino)pyrido[4,3-d]pyrimidin-7(6H)-one]
19 | < 100 nM | COc1ccc(-c2c(=O)n(-c3cn[nH]c3)cc3cnc(NCC(F)(F)F)nc23)cc1 [Example 208, 8-(4-methoxyphenyl)-6-(H-pyrazol-4-yl)-2-((2,2,2-trifluoroethyl)amino)pyrido[4,3-d]pyrimidin-7(6H)-one]
20 | < 100 nM | Cn1cc2cc(-n3cc4ccc(NCC(F)(F)F)nc4c(-c4ccc(CC(F)F)cc4)c3=O)ccc2n1 [Example 214, 8-(4-(2,2-difluoroethyl)phenyl)-6-(2-methyl-2H-indazol-5-yl)-2-((2,2,2-trifluoroethyl)amino)-1,6-naphthyridin-7(6H)-one]
21 | < 100 nM | COc1ccc(-n2cc3ccc(NCC(F)(F)F)nc3c(-c3ccc(Cl)cc3)c2=O)cc1 [Example 238, 8-(4-chlorophenyl)-6-(4-methoxyphenyl)-2-(2,2,2-trifluoroethylamino)-1,6-naphthyridin-7(6H)-one]
22 | < 100 nM | COc1ccc(-n2cc3cnc(OCC(F)(F)F)nc3c(-c3ccc(Br)cc3)c2=O)cc1 [Example 261, 8-(4-bromophenyl)-6-(4-methoxyphenyl)-2-(2,2,2-trifluoroethoxy)pyrido[4,3-d]pyrimidin-7(6H)-one]
23 | < 100 nM | Cn1cnc2ccc(-n3cc4cnc(OCC(F)(F)F)nc4c(-c4ccc(OC(F)F)cc4)c3=O)cc21 [Example 263, 8-(4-(difluoromethoxy)phenyl)-6-(1-methyl-1H-benzo[d]imidazol-6-yl)-2-(2,2,2-trifluoroethoxy)pyrido[4,3-d]pyrimidin-7(6H)-one]
24 | 100 to 1000 nM | O=c1c(-c2ccc(OC(F)F)cc2)c2nc(OCC(F)(F)F)ncc2cn1-c1ccc2nc[nH]c2c1 [Example 266, 6-(H-benzo[d]imidazol-6-yl)-8-(4-(difluoromethoxy)phenyl)-2-(2,2,2-trifluoroethoxy)pyrido[4,3-d]pyrimidin-7(6H)-one]
25 | < 100 nM | O=c1c(-c2ccc(C3CC3)cc2)c2nc(OCC(F)(F)F)ncc2cn1-c1ccc2ncccc2c1 [Example 267, 8-(4-cyclopropylphenyl)-6-(quinolin-6-yl)-2-(2,2,2-trifluoroethoxy)pyrido[4,3-d]pyrimidin-7(6H)-one]
